Where two headings read alike, the source gives them in different places. Non-standard residues stand in square brackets, D forms with d. Residues, ends and D or L forms follow the SMILES beside them. *: point of attachment. Nva = CCC[C@H](N)C(=O)O; Cbz = O=C(OCc1ccccc1)*
What was measured:
[1] = test system: SARS-CoV-2 strain BavPat1; assay: microbe, parasite or virus in culture; type: cell-based; conditions: Severe acute respiratory syndrome coronavirus 2; VeroE6-TMPRSS2+ cells, pilot study
[2] = test system: SARS-CoV-2 strain BavPat1; conditions: Vero-E6 cells
in vitro [3] = conditions: African green monkey
in vitro [4] = conditions: human
[5] = test system: SARS-CoV-2 strain BavPat1; assay: microbe, parasite or virus in culture; conditions: Severe acute respiratory syndrome coronavirus 2, Vero C1008, 48 h
[6] = test system: SARS-CoV-2 strain BavPat1; assay: SARS-CoV-2 replication inhibition in Caco-2 cells (viral RNA RT-qPCR); conditions: for SI = CC50/EC50: Caco-2 cells; for EC50 / EC90: Severe acute respiratory syndrome coronavirus 2, Caco-2, 48 h
[7] = Cytotoxicity in VeroE6 cells (CellTiter Blue); conditions: African green monkey

CC(C)C[C@@H](C=O)NC(=O)[C@H](CC(C)C)NC(=O)[C@H](CC(C)C)NC(=O)OCc1ccccc1 [Compound 1] (Cbz-Leu-Leu-Leu-aldehyde)
EC50 [1]: 850 nM
EC90 [1]: 3300 nM
SI = CC50/EC50 [2]: 22.8
balance between virus inhibition and cytotoxicity (selectivity index), in words [2]: advantageous balance
CC50 at 2 days (in vitro [3]): 2790 nM
CC50 at 2 days (in vitro [4]): 230 nM
EC50 [5]: 120 nM
EC90 [5]: 500 to 1000 nM
SI = CC50/EC50 [6]: 1.89
EC50 [6]: 120 nM
EC90 [6]: 130 nM

CCC[C@@H](C=O)NC(=O)[C@H](CC(C)C)NC(=O)[C@H](CC(C)C)NC(=O)OCc1ccccc1 [Compound 2] (Cbz-Leu-Leu-[Nva]-aldehyde)
SI = CC50/EC50 [2]: >33.3
balance between virus inhibition and cytotoxicity (selectivity index), in words [2]: best selectivity index
CC50 at 2 days (in vitro [3]): > 2000 nM
CC50 at 2 days (in vitro [4]): 450 nM
EC50 [5]: 60 nM
EC90 [5]: 160 nM
SI = CC50/EC50 [6]: 3.50
EC50 [6]: 130 nM
EC90 [6]: 630 nM

CC(=O)N[C@@H](CC(C)C)C(=O)N[C@@H](CC(C)C)C(=O)N[C@H](C=O)CC(C)C [Compound 3] (Ac-Leu-Leu-Leu-aldehyde)
SI = CC50/EC50 [2]: >45.2
balance between virus inhibition and cytotoxicity (selectivity index), in words [2]: best selectivity index
CC50 at 2 days (in vitro [3]): 13600 nM
EC50 [5]: < 300 nM
EC90 [5]: 1570 nM

CC(C)C[C@@H](C=O)NC(=O)[C@H](CC(C)C)NC(=O)[C@H](Cc1ccccc1)NC(=O)OCc1ccccc1 [Compound 4] (Cbz-Phe-Leu-Leu-aldehyde)
EC50 [1]: > 2000 nM
EC90 [1]: > 2000 nM
SI = CC50/EC50 [2]: 49.69
balance between virus inhibition and cytotoxicity (selectivity index), in words [2]: best selectivity index
CC50 at 2 days (in vitro [3]): 6460 nM
EC50 [5]: 130 nM
EC90 [5]: 600 nM

CC(C)C[C@H](NC(=O)OCc1ccccc1)C(=O)N[C@@H](CC(C)C)C(=O)N[C@H](C=O)Cc1ccccc1 [Compound 5] (Cbz-Leu-Leu-Phe-aldehyde)
EC50 [1]: 1780 nM
EC90 [1]: 2300 nM
SI = CC50/EC50 [2]: >33.3
balance between virus inhibition and cytotoxicity (selectivity index), in words [2]: best selectivity index
CC50 at 2 days (in vitro [3]): > 2000 nM
CC50 at 2 days (in vitro [4]): 480 nM
EC50 [5]: 60 nM
EC90 [5]: 1930 nM
SI = CC50/EC50 [6]: 5.13
EC50 [6]: 90 nM
EC90 [6]: 470 nM

CC(C)C[C@@H](C=O)NC(=O)[C@H](Cc1ccccc1)NC(=O)[C@H](CC(C)C)NC(=O)OCc1ccccc1 [Compound 6] (Cbz-Leu-Phe-Leu-aldehyde)
EC50 [1]: 140 nM
EC90 [1]: > 2000 nM
SI = CC50/EC50 [2]: 12.92
balance between virus inhibition and cytotoxicity (selectivity index), in words [2]: best selectivity index
CC50 at 2 days (in vitro [3]): 1680 nM
EC50 [5]: 310 nM
EC90 [5]: 11200 nM

CC(C)C[C@@H](C=O)NC(=O)[C@H](CC(C)C)NC(=O)[C@H](CC(C)C)NC(=O)c1cnccn1 [Compound 7]
SI = CC50/EC50 [2]: >2.94
balance between virus inhibition and cytotoxicity (selectivity index), in words [2]: advantageous balance
EC50 [5]: 680 nM
EC90 [5]: 1930 nM
CC50 at 2 days [7]: > 2000 nM

CC(C)C[C@@H](C=O)NC(=O)[C@H](CC(C)C)NC(=O)[C@H](CC(C)C)NC(=O)Cc1ccc(F)cc1F [Compound 8]
SI = CC50/EC50 [2]: >3.84
balance between virus inhibition and cytotoxicity (selectivity index), in words [2]: advantageous balance
CC50 at 2 days (in vitro [3]): > 2000 nM
EC50 [5]: 520 nM
EC90 [5]: 1280 nM

CC(C)C[C@H](NC(=O)[C@H](Cc1ccccc1)NC(=O)c1cnccn1)B(O)O [Compound 9, reference compound]
SI = CC50/EC50 [2]: 0.22
balance between virus inhibition and cytotoxicity (selectivity index), in words [2]: not favourable
CC50 at 2 days (in vitro [3]): 230 nM
EC50 [5]: 1050 nM
EC90 [5]: 21500 nM

CCC(CC)COC(=O)[C@H](C)N[P@](=O)(OC[C@H]1O[C@@](C#N)(c2ccc3c(N)ncnn23)[C@H](O)[C@@H]1O)Oc1ccccc1 [Rem, Remdesivir, reference compound]
EC90 [1]: 1660 nM
EC50 [5]: 2180 nM
EC90 [5]: 2450 nM

— patent US20240009263A1, “COMPOUNDS FOR TREATING ENVELOPED VIRUS INFECTIONS” (priority 2020, published 2024)
